# Test: Human HepG2 cell viability assay in 384 well format
# Assay type: toxicity, cell-based
# Set-up: dose 125 nL, time 70.5 hour; concentration not given beside the values
# Details: HepG2 cells, read-out: Inhibition
row,Compound,cytotoxicity at 70.5 h [%]
1,CCc1nc(CN2CCCC(NCc3nc4ccccc4o3)C2)no1 (stereo unspecified),-1.56
2,Cn1cc(C2CCCN2C(=O)CCc2cnn(-c3ccccc3)c2)cn1 (stereo unspecified),-3.27
3,CC(C)c1noc(CCCC(=O)N2CCN(Cc3cccnc3)CC2)n1,-13
4,CC(Cn1cccn1)NC(=O)NCCc1cccnc1 (stereo unspecified),-8.85
5,Cc1csc(CCNC(=O)NC(C)Cn2cccn2)n1 (stereo unspecified),19
6,Cc1cccc(CN(C(=O)NCc2ccccn2)C2CC2)c1,-8.28
7,CC(Cn1cccn1)NC(=O)NCCc1ccsc1 (stereo unspecified),15.4
8,CS(=O)(=O)c1ccc(CNC(=O)Nc2cn[nH]c2)cc1,-12.4
9,Cn1cc(NS(=O)(=O)c2ccc3c(c2)CCCC3)ccc1=O,22.1
10,CCOc1ccc2c(c1)CN(Cc1nc3c(cnn3C)c(=O)[nH]1)CC2,-4.82
11,Cc1cc(C2CCCN2Cc2nc3c(cnn3C)c(=O)[nH]2)on1 (stereo unspecified),-8.83
12,COC(=O)c1ccc(N2CCN(C(=O)c3cnc(C)cn3)C(C)C2)cc1 (stereo unspecified),-11
13,COC(=O)c1ccc(N2CCN(C(=O)c3cccnc3)C(C)C2)cc1 (stereo unspecified),-4.39
14,Cc1ccccc1C1CCCN1Cc1nc2c(cnn2C)c(=O)[nH]1 (stereo unspecified),-9.08
15,CNS(=O)(=O)c1ccc(CNC(=O)Nc2cn[nH]c2)cc1,-5.63
16,Cn1ncc2c(=O)[nH]c(CN3CCCC3c3ccsc3)nc21 (stereo unspecified),-7.44
17,CCn1cnnc1C1CCN(C(=O)c2cc(C)c(C)s2)CC1,15.5
18,CCn1cnnc1C1CCN(C(=O)c2cc3c(s2)CCCC3)CC1,-9.56
19,COC(=O)c1ccc(N2CCN(C(=O)c3cc(C)no3)C(C)C2)cc1 (stereo unspecified),-12
20,Cc1nc(CN2CCCC(NCc3ccc(C(N)=O)cc3)C2)no1 (stereo unspecified),-4.31
21,Cc1cc(NC(=O)CNC2CCc3ncnn3C2)no1 (stereo unspecified),-18.6
22,CCc1nc2n(n1)CC(NCCC(=O)Nc1cc(C)on1)CC2 (stereo unspecified),-6.35
23,Cc1nc2n(n1)CC(NCCC(=O)Nc1cc(C)on1)CC2 (stereo unspecified),-6.62
24,CN(C)c1cc2c(nn1)CCN(C(=O)C1CCCc3ccccc31)C2 (stereo unspecified),-8.02

row,Compound,cytotoxicity at 70.5 h [%]
1,COc1cc(CNC(=O)N(Cc2ccc(F)cc2F)C2CC2)ccn1,-12.9
2,Nc1cc2c(nn1)CCN(C(=O)C1CCc3ccccc31)C2 (stereo unspecified),-11.2
3,Cc1cc(CNC(=O)N(Cc2ccc(F)cc2F)C2CC2)no1,15.5
4,Cc1cc(NC(=O)CN2CCC(N(C)Cc3ncc(C)o3)C2)n(C)n1 (stereo unspecified),16.2
5,CCCN(C)CCC(=O)N1CCCC1Cn1cccn1 (stereo unspecified),15.3
6,CC(C(=O)NCCOc1ccccc1)n1cncn1 (stereo unspecified),-12.5
7,N#Cc1ccc(OCC(O)CN2CCC(c3ccn[nH]3)CC2)cc1 (stereo unspecified),-14.4
8,NC(=O)CN1CCCN(C(=O)CCOc2ccccc2Cl)CC1,-6.92
9,c1cncc(-c2noc(CN3CCCC(Cn4cncn4)C3)n2)c1 (stereo unspecified),9.23
10,c1ccc(-c2noc(CN3CCCC(Cn4cncn4)C3)n2)nc1 (stereo unspecified),-11.5
11,Cc1ccc(C)c(OCCC(=O)N2CCCN(CC(N)=O)CC2)c1,-7.33
12,Cc1ccc(-c2noc(CN3CCCC(Cn4cncn4)C3)n2)cc1 (stereo unspecified),-1.78
13,CC(C)(C)C(O)CN1CCN(C(=O)c2ccc3c(c2)COC3)CC1 (stereo unspecified),10.4
14,Cc1cnn(CCNCC(O)COc2ccc(Cl)cc2Cl)c1 (stereo unspecified),-2.81
15,Cc1cnn(CCNCC(O)COc2cc(Cl)ccc2Cl)c1 (stereo unspecified),-14.6
16,Cc1cnn(CCNCC(O)COc2ccc3ccccc3c2)c1 (stereo unspecified),-0.298
17,CCc1noc(C)c1C(=O)N1CCCC1c1c(C)nn(C)c1C (stereo unspecified),-1.9
18,CC(C(=O)NCC(F)(F)F)N1CCC(N2CCN(C)C2=O)CC1 (stereo unspecified),-8.46
19,CCCc1noc(CCC(=O)N2CCCC2c2cccs2)n1 (stereo unspecified),-2.53
20,CCn1ncc2c1CCCC2NCc1cc(C)ccc1OC (stereo unspecified),-12.5
21,CN(CC(=O)N1CCCCC1Cn1cccn1)Cc1ccccc1 (stereo unspecified),13
22,COc1c(C2CCCN2C(=O)c2c(C)noc2C)c(C)nn1C (stereo unspecified),-8.08
23,CN(CC(=O)N1CCCC1Cn1cccn1)Cc1ccccc1 (stereo unspecified),-17.4
24,CCCc1noc(CCC(=O)N2CCCC2c2ccncc2)n1 (stereo unspecified),-5.95

row,Compound,cytotoxicity at 70.5 h [%]
1,COc1ccccc1COCC(O)CN1CCC(c2ccn[nH]2)CC1 (stereo unspecified),-8.12
2,c1coc(-c2noc(CN3CCCC3Cn3cncn3)n2)c1 (stereo unspecified),-8.45
3,CCn1ncc2c1CCCC2NCc1ccc(OC)cc1OC (stereo unspecified),-4.5
4,Cc1cnc(CN(C)C2CCN(CC(=O)Nc3nccs3)C2)o1 (stereo unspecified),-5.94
5,CCn1cc(CN2CCCN(C(=O)c3sccc3OC)CC2)cn1,3.74
6,O=C(CN1CCCC(Cn2cncn2)C1)NCCC1=CCCCC1 (stereo unspecified),7.12
7,CCn1cc(CN2CCCN(C(=O)c3cccc(C#N)c3)CC2)cn1,-3.9
8,COc1cccc(C2CCCN2CCCNS(C)(=O)=O)c1 (stereo unspecified),-12.4
9,COc1ccc(C2CCCCCN2CCCNS(C)(=O)=O)cc1 (stereo unspecified),-6.03
10,CCCc1nc(CN2CCCC2c2cnn(C)c2)cs1 (stereo unspecified),13
11,Cc1cnn(CCC(=O)N2CCCN(c3nc(C)cs3)CC2)c1,-3.54
12,Cn1cc(CN2CCCN(C(=O)c3sccc3C#N)CC2)cn1,-2.13
13,O=C(CS(=O)(=O)Cc1cc(Cl)c2c(c1)OCCCO2)NCC1CC1,-3.53
14,CN(C)c1ncccc1CNS(=O)(=O)c1ccc(C(N)=O)cc1,-7.08
15,CNC(=O)CCS(=O)(=O)Cc1cc(Cl)c2c(c1)OCCCO2,-3.42
16,CN(C)c1ncccc1CNS(=O)(=O)c1ccc(F)c(F)c1,1.87
17,CN(Cc1ccsc1)C(=O)Nc1ccc(S(C)(=O)=O)cc1,-1.57
18,CC(C)C(C)(C#N)NC(=O)CN1CCC(c2ccnn2CCO)CC1 (stereo unspecified),-3.64
19,Cn1nccc1C1CCN(CC(=O)NCC2CC2)CC1,-8.55
20,CCOc1ccnc(N2CCN(C(=O)c3cnc[nH]3)CC2)n1,-0.507
21,CCOc1ccnc(N2CCN(C(=O)c3cc[nH]n3)CC2)n1,-4.46
22,Cn1cc(C2CCCN2Cc2csc(-c3ccccc3)n2)cn1 (stereo unspecified),-7.14
23,c1cnn(-c2ccc(CN3CCCC(Cn4cncn4)C3)cc2)c1 (stereo unspecified),-1.71
24,COc1ccc2cc(C(=O)N3CCCC(n4ccnc4C)C3)[nH]c2c1 (stereo unspecified),0.0549

row,Compound,cytotoxicity at 70.5 h [%]
1,Cc1nccn1C1CCCN(C(=O)c2cc3c(F)cccc3[nH]2)C1 (stereo unspecified),-1.56
2,COc1c(CNC2CCN(C(=O)C3CC3)CC2)c(C(C)C)nn1C,0.393
3,CCN(CC1CCOC1)C(=O)c1ccccc1NS(=O)(=O)CC (stereo unspecified),-3.45
4,CC(=O)N1CCCN(C(=O)c2cnc3n[nH]c(C)c3c2)CC1,11.1
5,COC(=O)c1ccc(N2CCN(CCC#N)C(C)C2)cc1 (stereo unspecified),11.4
6,COc1c(CNC2CCN(C(C)(C)C)CC2)c(C(C)C)nn1C,3.99
7,Cc1ncc2c(n1)CN(CC(=O)Nc1ccncc1)CC2,1.41
8,Cn1cc(CN2CCCN(C(=O)c3ccc4c(c3)COC4)CC2)cn1,-4.36
9,Cc1nccn1C1CCCN(C(=O)c2ccc(N(C)C)nc2)C1 (stereo unspecified),-7.86
10,O=C(O)c1cc(S(=O)(=O)Nc2cc(F)ccc2F)cc2c1OCCO2,-3.33
11,CCc1ncc2c(n1)CN(Cc1nc(-c3ccccn3)no1)CC2,33.7
12,CC(C)c1noc(C(C)N2CCN(Cc3ccsc3)CC2)n1 (stereo unspecified),-5.78
13,CCN(CC1CCOC1)C(=O)c1cccnc1N1CCOCC1 (stereo unspecified),0.841
14,CC(=O)N1CCCN(C(=O)NCc2ccccn2)CC1,3.62
15,COc1cccc(CN2CCN(C(=O)CN3CCOCC3)CC2)n1,0.577
16,CCN1CCOC(CNCc2ccccc2OCc2ccccn2)C1 (stereo unspecified),1.15
17,CCc1cnc(CN(C(C)=O)C2CCN(CCc3cnn(C)c3)C2)o1 (stereo unspecified),2.5
18,CCc1cnc(CN(C)C2CCN(CCc3cccs3)C2)o1 (stereo unspecified),-4.48
19,CN(C)C(=O)CS(=O)(=O)Cc1cc(Cl)c2c(c1)OCCCO2,6.99
20,CC(C(N)=O)S(=O)(=O)Cc1cc(Cl)c2c(c1)OCO2 (stereo unspecified),-12.5
21,CC(C)(C)c1nc(CN(Cc2cccs2)C2CCS(=O)(=O)C2)no1 (stereo unspecified),-4.17
22,Cn1ncc2c(=O)[nH]c(CN3CCCC3CC3CCCCC3)nc21 (stereo unspecified),-9.61
23,CC(C)OCc1ccc(CNC(=O)CC(F)(F)F)cc1,-7.73
24,CCCNC(=O)CN1CCC(C(=O)Nc2cnn(CC)c2)CC1,-10.8

row,Compound,cytotoxicity at 70.5 h [%]
1,O=C(O)C1CCCCN1C(=O)c1cccc(C(F)(F)F)c1 (stereo unspecified),-9.81
2,COc1ccc(C2=CCN(C(=O)C3CCN(C)C(=O)C3)CC2)cc1 (stereo unspecified),-8.88
3,Cc1nc(CN(Cc2ccccc2)C2CCS(=O)(=O)C2)oc1C (stereo unspecified),-0.994
4,COc1cc(C(C)=O)ccc1OCC(=O)N(C)Cc1cnn(C)c1,-7.56
5,CC(C)c1nn(C)c(N(C)C)c1CNCCC(=O)NC1CCCC1,26.8
6,CCn1cc(NC(=O)C2CCN(CC(=O)N3CCOCC3)CC2)cn1,-19
7,CCc1nnc2n1CCN(C(=O)C(C)COCc1ccccc1)C2 (stereo unspecified),-9.75
8,NC(=O)NCC1CCCCN1C(=O)c1cccc(C(F)(F)F)c1 (stereo unspecified),-3.78
9,O=C(CN1CCCC1Cn1cncn1)NCCc1c(F)cccc1F (stereo unspecified),27.9
10,COc1cccc(C(=O)N2CCCCC2CNC(N)=O)c1 (stereo unspecified),9
11,CC(C)Oc1ccc(CNC(=O)CC(F)(F)F)cc1F,-18
12,CCNc1cc2c(nn1)CCN(C(=O)Cc1c(C)noc1C)C2,4.3
13,CCc1nnc2n1CCN(C(=O)COCCc1ccccc1)C2,-14.7
14,Cc1nc(C)n(CC2CN(c3ccc(C#N)cn3)CCO2)n1 (stereo unspecified),-4.17
15,CCOc1cc(C(=O)N2CCCC(c3cc(C(N)=O)[nH]n3)C2)ccn1 (stereo unspecified),-7.42
16,COCCN1CCC(CNC(=O)C2(c3cc(C)cc(C)c3)CCC2)C1 (stereo unspecified),-5.65
17,CN(C)S(=O)(=O)c1ccc(CN2CCCC2CO)o1 (stereo unspecified),-17
18,COCc1nc(C(=O)N2CCCCC2Cn2cccn2)cs1 (stereo unspecified),-7.2
19,CCc1nc2n(n1)CC(NCc1ncc(-c3ccccc3)o1)CC2 (stereo unspecified),-5.1
20,Cc1csc(N2CCN(CC(=O)Nc3c(C)n[nH]c3C)CC2C)n1 (stereo unspecified),7.7

# Source: ChEMBL document CHEMBL3507680, “University of Dundee, Gates Library screen for HepG2 cell viability”
